Reference: patent publication US20260014118A1, “VITAMINS FOR USE IN IMPROVING GUT HEALTH” (DSM IP ASSETS B.V., priority 2022, published 2026)

System: Bifidobacterium animalis ssp. lactis DSM 32269
Experiment: Short-term batch-fermentation (colonic incubation, M-SHIME colon model) with fecal inocula of six human donors; qPCR on groEL gene
Format: cell-based
Details: 48 h colonic incubation; for levels of Bifidobacterium animalis ssp. lactis (DSM 32269 specific groEL gene copies) in the lumen environment, as compared to the respective control: average of six donors, co-supplemented with probiotic 1*10^9 CFU, vitamin B2 0.01667 g/L, vitamin C 0.333 g/L, vitamin D3 0.000025 g/L
Description: A short-term batch-fermentation experiment was carried out by ProDigest, consisting of a colonic incubation of a representative dose of a selected vitamin with a representative bacterial inoculum under simulated conditions for the proximal large intestine. In the current experiment, the bacterial inocula were derived from fresh fecal samples of six different healthy adult donors. Incubations were performed as described previously (Van den Abbeele, P.; Taminiau, B.; Pinheiro, I.; Duysburgh, C.; Jacobs, H.; Pijls, L.; Marzorati, M. Arabinoxylo-Oligosaccharides and Inulin Impact Inter-Individual Variation on Microbial Metabolism and Composition, Which Immunomodulates Human Cells. J. Agric. Food Chem. 2018, 66, 1121-1130). At the start of the short-term colonic incubation, fresh fecal material from six healthy human donors was collected and upon preparation of an anaerobic fecal slurry, this slurry was inoculated at 10 vol % in a SHIME nutritional medium containing basal nutrients containing 3.5 g/L K2HPO4, 10.9 g/L KH2PO4, 2 g/L NaHCO3(Chem-lab NV, Zedelgem, Belgium), 2 g/L yeast extract, 2 g/L peptone (Oxoid, Aalst, Belgium), 1 g/L mucin (Carl Roth, Karlsruhe, Germany), 0.5 g/L L-cysteine and 2 mL/L Tween80 (Sigma-Aldrich, Bornem, Belgium). All test ingredients (i.e., probiotic strain, vitamin B2, C, or D3) were also added to the SHIME medium. Furthermore, M-SHIME® technology was incorporated in the current experiment by adding mucin-covered microcosms (modeling the mucus of the colon) to the incubations as described previously (Van den Abbeele, P., et al. (2013). Butyrate-producing Clostridium cluster XIVa species specifically colonize mucins in an in vitro gut model. The ISME Journal 7 (5), 949-961). Incubations were performed for 48 h, at 37° C., under shaking (90 rpm) and anaerobic conditions.
In this study, the Bifidobacterium animalis ssp. lactis BB-12 equivalent Bifidobacterium animalis ssp. lactis DSM 32269 (Biocare Copenhagen) was added to the colon model containing the donor samples, alone or in combination with vitamin B2, C, or D (see Table 1). After 48 h of incubation, the abundance of the added strain was analyzed using primers that are specific for Bifidobacterium animalis ssp. lactis BB-12/Bifidobacterium animalis ssp. lactis DSM 32269. Experiments were performed in single repetition.
The Bifidobacterium animalis ssp. lactis BB-12 equivalent strain Bifidobacterium animalis ssp. lactis DSM 32269 was added to the SHIME medium as an overnight grown culture at a concentration of 1*10^9 CFU. The probiotic strain was either supplemented alone or in combination with vitamin B2, vitamin C or vitamin D3 (DSM). Vitamin B2, C, and D3 was added at a concentration of 0.01667 g/L, 0.333 g/L and 0.000025 g/L, respectively, which translates into a 10 mg, 200 mg, and […] dose, respectively, given that the colon volume is about 600 ml.
qPCR was performed on groEL gene (NCBI reference CP003497) to monitor the level of the supplemented Bifidobacterium animalis ssp. lactis DSM 32269 strain within the gut microbiome, as described previously (Junick et al. (2012), Quantification of Human Fecal Bifidobacterium Species by Use of Quantitative Real-Time PCR Analysis Targeting the groEL Gene). Samples were analyzed from the lumen and mucus environment following 48 h of incubation.
Statistical analysis was performed to investigate the average effect of the test products. For this purpose, the average over the six donors was calculated for each endpoint. […]

[1] = control = probiotic only, p<0.05

SMILES	levels of Bifidobacterium animalis ssp. lactis (DSM 32269 specific groEL gene copies) in the lumen environment, as compared to the respective control [1]	levels of Bifidobacterium animalis ssp. lactis in the mucus environment, as compared to the respective control (mucus, vitamin B2 0.01667 g/L co-supplemented with probiotic, control = probiotic only, p<0.05)	copies of the Bifidobacterium animalis ssp. lactis DSM 32269 specific groEL gene in the mucus environment, relative to control (mucus, vitamin B2 0.01667 g/L co-supplemented with probiotic, versus probiotic only)
Cc1cc2nc3c(=O)[nH]c(=O)nc-3n(C[C@H](O)[C@H](O)[C@H](O)CO)c2cc1C [vitamin B2, riboflavin]	significantly increased	significantly increased	around 6 times
O=C1O[C@H]([C@@H](O)CO)C(O)=C1O [vitamin C, L-ascorbic acid]	significantly increased	–	–
C=C1CC[C@H](O)C/C1=C/C=C1\CCC[C@]2(C)[C@@H]([C@H](C)CCCC(C)C)CC[C@@H]12 [vitamin D, cholecalciferol]	significantly increased	–	–
